Measured values reported in patent US20120220562A1, “Anti-Viral Compounds” (ABBOTT LABAORATORIES, priority 2011, published 2012).

tested on: HCV 1b-Con1 replicon; assay: HCV 1b-Con1 replicon assay in the presence of 5% FBS; type: cell-based; conditions: Hepatitis C virus

Row | Compound | EC50
1 | COC(=O)N[C@H](C(=O)N1CCC[C@H]1c1nc2cc([C@H]3CC[C@H](c4ccc5[nH]c([C@@H]6CCCN6C(=O)[C@@H](NC(=O)OC)C(C)C)nc5c4)N3c3cc(F)c(N4CCC(c5ccccc5)(c5ccccc5)CC4)c(F)c3)ccc2[nH]1)C(C)C [Example 5.2, methyl {(2S)-1-[(2S)-2-{5-[(2R,5R)-1-[4-(4,4-diphenylpiperidin-1-yl)-3,5-difluorophenyl]-5-{2-[(2S)-1-{(2S)-2-[(methoxycarbonyl)amino]-3-methylbutanoyl}pyrrolidin-2-yl]-1H-benzimidazol-5-yl}pyrrolidin-2-yl]-1H-benzimidazol-2-yl}pyrrolidin-1-yl]-3-methyl-1-oxobutan-2-yl}carbamate] | < 0.1 nM
2 | COC(=O)N[C@H](C(=O)N1CCC[C@H]1c1ncc(-c2cccc(C3(c4cccc(-c5cnc([C@@H]6CCCN6C(=O)[C@@H](NC(=O)OC)C(C)C)[nH]5)c4)CN(c4ccc(C(C)(C)C)cc4)C3)c2)[nH]1)C(C)C [Example 12.1, methyl {(2S)-1-[(2S)-2-(5-{3-[1-(4-tert-butylphenyl)-3-(3-{2-[(2S)-1-{(2S)-2-[(methoxycarbonyl)amino]-3-methylbutanoyl}pyrrolidin-2-yl]-1H-imidazol-5-yl}phenyl)azetidin-3-yl]phenyl}-1H-imidazol-2-yl)pyrrolidin-1-yl]-3-methyl-1-oxobutan-2-yl}carbamate] | 1 to 10 nM
3 | COC(=O)N[C@H](C(=O)N1CCC[C@H]1c1nc2cc(F)c([C@H]3CC[C@H](c4cc5[nH]c([C@@H]6CCCN6C(=O)[C@@H](NC(=O)OC)C6CCOCC6)nc5cc4F)N3c3cc(F)c(N4CCN(c5ccc(C(F)(F)F)cc5)CC4)c(F)c3)cc2[nH]1)C1CCOCC1 [Example 4.46, dimethyl ([(2R,5R)-1-(3,5-difluoro-4-{4-[4-(trifluoromethyl)phenyl]piperazin-1-yl}phenyl)pyrrolidine-2,5-diyl]bis{(5-fluoro-1H-benzimidazole-6,2-diyl)(2S)pyrrolidine-2,1-diyl[(1S)-2-oxo-1-(tetrahydro-2H-pyran-4-yl)ethane-2,1-diyl]})biscarbamate] | < 0.1 nM
4 | COC(=O)N[C@H](C(=O)N1[C@H](c2nc3cc([C@H]4CC[C@H](c5ccc6[nH]c([C@@H]7C[C@@H]8CCC[C@@H]8N7C(=O)[C@@H](NC(=O)OC)C7CCCC7)nc6c5)N4c4cc(F)c(N5CCCCC5)c(F)c4)ccc3[nH]2)C[C@@H]2CCC[C@@H]21)C1CCCC1 [Example 3.30, dimethyl ({(2R,5R)-1-[3,5-difluoro-4-(piperidin-1-yl)phenyl]pyrrolidine-2,5-diyl}bis{1H-benzimidazole-5,2-diyl(2S,3aS,6aS)hexahydrocyclopenta[b]pyrrole-2,1(2H)-diyl[(1S)-1-cyclopentyl-2-oxoethane-2,1-diyl]})biscarbamate] | < 0.1 nM
5 | COC(=O)N[C@H](C(=O)N1CCC[C@H]1c1nc2cc([C@@H]3CC[C@@H](c4cc5nc([C@@H]6CCCN6C(=O)[C@@H](NC(=O)OC)C(C)C)[nH]c5cc4F)N3c3cc(F)c(N4CCN(c5c(F)cccc5F)CC4)c(F)c3)c(F)cc2[nH]1)C(C)C [Example 3.50, methyl {(2S)-1-[(2S)-2-{5-[(2S,5S)-1-{4-[4-(2,6-difluorophenyl)piperazin-1-yl]-3,5-difluorophenyl}-5-{6-fluoro-2-[(2S)-1-{(2S)-2-[(methoxycarbonyl)amino]-3-methylbutanoyl}pyrrolidin-2-yl]-1H-benzimidazol-5-yl}pyrrolidin-2-yl]-6-fluoro-1H-benzimidazol-2-yl}pyrrolidin-1-yl]-3-methyl-1-oxobutan-2-yl}carbamate] | < 0.1 nM
6 | COC(=O)N[C@H](C(=O)N1CCC[C@H]1c1nc2ccc([C@H]3CC[C@H](c4ccc5nc([C@@H]6CCCN6C(=O)[C@@H](NC(=O)OC)C(C)C)[nH]c5c4)N3c3cc(F)c(N4CC(C)CC(C)C4)c(F)c3)cc2[nH]1)C(C)C (stereo partly drawn) [Example 5.7, methyl {(2S)-1-[(2S)-2-{6-[(2R,5R)-1-[4-(3,5-dimethylpiperidin-1-yl)-3,5-difluorophenyl]-5-{2-[(2S)-1-{(2S)-2-[(methoxycarbonyl)amino]-3-methylbutanoyl}pyrrolidin-2-yl]-1H-benzimidazol-6-yl}pyrrolidin-2-yl]-1H-benzimidazol-2-yl}pyrrolidin-1-yl]-3-methyl-1-oxobutan-2-yl}carbamate] | < 0.1 nM
7 | COC(=O)N[C@H](C(=O)N1CCC[C@H]1c1nc2c(C)c([C@H]3CC[C@H](c4ccc5[nH]c([C@@H]6CCCN6C(=O)[C@@H](NC(=O)OC)C(C)C)nc5c4C)N3c3ccc(C(C)(C)C)cc3)ccc2[nH]1)C(C)C [Example 6.7, methyl {(2S)-1-[(2S)-2-{5-[(2R,5R)-1-(4-tert-butylphenyl)-5-{2-[(2S)-1-{(2S)-2-[(methoxycarbonyl)amino]-3-methylbutanoyl}pyrrolidin-2-yl]-4-methyl-1H-benzimidazol-5-yl}pyrrolidin-2-yl]-4-methyl-1H-benzimidazol-2-yl}pyrrolidin-1-yl]-3-methyl-1-oxobutan-2-yl}carbamate] | < 0.1 nM
8 | COC(=O)N[C@H](C(=O)N1CCC[C@H]1c1nc2cc([C@H]3CC[C@H](c4ccc5[nH]c([C@@H]6CCCN6C(=O)[C@@H](NC(=O)OC)C(C)C)nc5c4)N3c3cc(F)c(N4CCC(c5cccc([Si](C)(C)C)c5)CC4)c(F)c3)ccc2[nH]1)C(C)C [Example 3.43, methyl {(2S)-1-[(2S)-2-{5-[(2R,5R)-1-(3,5-difluoro-4-{4-[3-(trimethylsilyl)phenyl]piperidin-1-yl}phenyl)-5-{2-[(2S)-1-{(2S)-2-[(methoxycarbonyl)amino]-3-methylbutanoyl}pyrrolidin-2-yl]-1H-benzimidazol-5-yl}pyrrolidin-2-yl]-1H-benzimidazol-2-yl}pyrrolidin-1-yl]-3-methyl-1-oxobutan-2-yl}carbamate] | < 0.1 nM
9 | COC(=O)N[C@H](C(=O)N1CCC[C@H]1c1nc2cc([C@H]3CC[C@@H](c4cc5nc([C@@H]6CCCN6C(=O)[C@@H](NC(=O)OC)C(C)C)[nH]c5cc4F)N3c3cnc(N4CCC(c5ccccc5)CC4)nc3)c(F)cc2[nH]1)C(C)C [Example 3.46, methyl {(2S)-1-[(2S)-2-(6-fluoro-5-{(2R,5S)-5-{6-fluoro-2-[(2S)-1-{(2S)-2-[(methoxycarbonyl)amino]-3-methylbutanoyl}pyrrolidin-2-yl]-1H-benzimidazol-5-yl}-1-[2-(4-phenylpiperidin-1-yl)pyrimidin-5-yl]pyrrolidin-2-yl}-1H-benzimidazol-2-yl)pyrrolidin-1-yl]-3-methyl-1-oxobutan-2-yl}carbamate] | < 0.1 nM
10 | COC(=O)N[C@H](C(=O)N1CCC[C@H]1c1nc2cc([C@H]3CC[C@H](c4ccc5[nH]c([C@@H]6CCCN6C(=O)[C@@H](NC(=O)OC)C(C)C)nc5c4)N3c3ccc(-c4ccccc4)cc3)ccc2[nH]1)C(C)C [Example 3.5, methyl {(2S)-1-[(2S)-2-{5-[(2R,5R)-1-(biphenyl-4-yl)-5-{2-[(2S)-1-{(2S)-2-[(methoxycarbonyl)amino]-3-methylbutanoyl}pyrrolidin-2-yl]-1H-benzimidazol-5-yl}pyrrolidin-2-yl]-1H-benzimidazol-2-yl}pyrrolidin-1-yl]-3-methyl-1-oxobutan-2-yl}carbamate] | < 0.1 nM
11 | COC(=O)N[C@H](C(=O)N1CCC[C@H]1c1nc2cc([C@H]3CC[C@H](c4cc5nc([C@@H]6CCCN6C(=O)[C@@H](NC(=O)OC)C6CCOCC6)[nH]c5cc4F)N3c3cc(F)c(N4CCC(C(C)(C)C)CC4)c(F)c3)c(F)cc2[nH]1)C1CCOCC1 [Example 6.14, dimethyl ({(2R,5R)-1-[4-(4-tert-butylpiperidin-1-yl)-3,5-difluorophenyl]pyrrolidine-2,5-diyl}bis{(6-fluoro-1H-benzimidazole-5,2-diyl)(2S)pyrrolidine-2,1-diyl [(1S)-2-oxo-1-(tetrahydro-2H-pyran-4-yl)ethane-2,1-diyl]}) biscarbamate] | < 0.1 nM
12 | COC(=O)N[C@H](C(=O)N1CCC[C@H]1c1nc2cc([C@H]3CC[C@H](c4ccc5[nH]c([C@@H]6CCCN6C(=O)[C@@H](NC(=O)OC)C6CCCC6)nc5c4)N3c3cc(F)c(N4CCC(c5ccccc5)CC4)c(F)c3)ccc2[nH]1)C1CCCC1 [Example 3.24, dimethyl ({(2R,5R)-1-[3,5-difluoro-4-(4-phenylpiperidin-1-yl)phenyl]pyrrolidine-2,5-diyl}bis{1H-benzimidazole-5,2-diyl(2S)pyrrolidine-2,1-diyl[(1S)-1-cyclopentyl-2-oxoethane-2,1-diyl]})biscarbamate] | < 0.1 nM
13 | COC(=O)N[C@H](C(=O)N1CCC[C@H]1c1nc2cc([C@H]3CC[C@H](c4cc5nc([C@@H]6CCCN6C(=O)[C@@H](NC(=O)OC)C(C)C)[nH]c5cc4F)N3c3cc(F)c(N4CCC5(CC4)CC5)c(F)c3)c(F)cc2[nH]1)C(C)C [Example 6.12, methyl {(2S)-1-[(2S)-2-{5-[(2R,5R)-1-[4-(6-azaspiro[2.5]oct-6-yl)-3,5-difluorophenyl]-5-{6-fluoro-2-[(2S)-1-{(2S)-2-[(methoxycarbonyl)amino]-3-methylbutanoyl}pyrrolidin-2-yl]-1H-benzimidazol-5-yl}pyrrolidin-2-yl]-6-fluoro-1H-benzimidazol-2-yl}pyrrolidin-1-yl]-3-methyl-1-oxobutan-2-yl}carbamate] | < 0.1 nM
14 | COC(=O)N[C@H](C(=O)N1CCC[C@H]1c1nc2cc([C@H]3CC[C@H](c4ccc5[nH]c([C@@H]6CCCN6C(=O)[C@@H](NC(=O)OC)C(C)C)nc5c4)N3c3cc(Cl)c(N4CCCCC4)c(Cl)c3)ccc2[nH]1)C(C)C [Example 4.4, methyl {(2S)-1-[(2S)-2-{5-[(2R,5R)-1-[3,5-dichloro-4-(piperidin-1-yl)phenyl]-5-{2-[(2S)-1-{(2S)-2-[(methoxycarbonyl)amino]-3-methylbutanoyl}pyrrolidin-2-yl]-1H-benzimidazol-5-yl}pyrrolidin-2-yl]-1H-benzimidazol-2-yl}pyrrolidin-1-yl]-3-methyl-1-oxobutan-2-yl}carbamate] | < 0.1 nM
